This is an account of results in patent publication US9428508B2, “2,4-diamino-6,7-dihydro-5H-pyrrolo[2,3]pyrimidine derivatives as FAK/Pyk2 inhibitors” (Centaurus BioPharma Co., Ltd., priority 2011, dated 2016).

A value given as a limit tells only on which side of the number the result lay.

The target of test [1] is PYK2 (Homo sapiens (Human), UniProt Q14289). Kind of test: Biochemical assay for PYK2 activity (LANCE TR-FRET, ULight-poly Glu,Ala,Tyr substrate). The following applies: GST-tagged PYK2, 40 min reaction. In a few lines: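 GST-tagged human PYK2 (2 nM working stock) with ULight-poly Glu,Ala,Tyr (1:1:1) peptide (666 nM working stock) and ATP (46.6 μM working stock) in 40 mM Tris pH 7.5, MgCl2, 1 mM DTT, 1 mM CHAPS; 40 min reaction, EDTA quench. Phosphotyrosine read by LANCE Eu-anti-phosphotyrosine (PY20) TR-FRET after 60 min; 12-point 3-fold compound dilutions.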

For test [2], the target named is FAK (Homo sapiens (Human), UniProt Q05397). In words: Biochemical assay for FAK activity (LANCE TR-FRET, ULight-poly Glu,Ala,Tyr substrate). The following applies: GST-tagged FAK, 120 min reaction. In a few lines:
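GST-tagged FAK (2.5 nM working stock) with ULight-poly Glu,Ala,Tyr (666 nM stock) and ATP (33.3 μM stock) in Tris pH 7.5/MgCl2/DTT/CHAPS buffer with BSA, 120 min; EDTA-quenched. Phosphorylation read by TR-FRET with Eu-anti-phosphotyrosine (PY20) antibody after 60 min. Compounds tested as 12-point 3-fold dilutions.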
A general note: Time-resolved FRET reads energy transfer from a long-lived donor to a nearby acceptor.

Sequence of FAK (Q05397 whole entry): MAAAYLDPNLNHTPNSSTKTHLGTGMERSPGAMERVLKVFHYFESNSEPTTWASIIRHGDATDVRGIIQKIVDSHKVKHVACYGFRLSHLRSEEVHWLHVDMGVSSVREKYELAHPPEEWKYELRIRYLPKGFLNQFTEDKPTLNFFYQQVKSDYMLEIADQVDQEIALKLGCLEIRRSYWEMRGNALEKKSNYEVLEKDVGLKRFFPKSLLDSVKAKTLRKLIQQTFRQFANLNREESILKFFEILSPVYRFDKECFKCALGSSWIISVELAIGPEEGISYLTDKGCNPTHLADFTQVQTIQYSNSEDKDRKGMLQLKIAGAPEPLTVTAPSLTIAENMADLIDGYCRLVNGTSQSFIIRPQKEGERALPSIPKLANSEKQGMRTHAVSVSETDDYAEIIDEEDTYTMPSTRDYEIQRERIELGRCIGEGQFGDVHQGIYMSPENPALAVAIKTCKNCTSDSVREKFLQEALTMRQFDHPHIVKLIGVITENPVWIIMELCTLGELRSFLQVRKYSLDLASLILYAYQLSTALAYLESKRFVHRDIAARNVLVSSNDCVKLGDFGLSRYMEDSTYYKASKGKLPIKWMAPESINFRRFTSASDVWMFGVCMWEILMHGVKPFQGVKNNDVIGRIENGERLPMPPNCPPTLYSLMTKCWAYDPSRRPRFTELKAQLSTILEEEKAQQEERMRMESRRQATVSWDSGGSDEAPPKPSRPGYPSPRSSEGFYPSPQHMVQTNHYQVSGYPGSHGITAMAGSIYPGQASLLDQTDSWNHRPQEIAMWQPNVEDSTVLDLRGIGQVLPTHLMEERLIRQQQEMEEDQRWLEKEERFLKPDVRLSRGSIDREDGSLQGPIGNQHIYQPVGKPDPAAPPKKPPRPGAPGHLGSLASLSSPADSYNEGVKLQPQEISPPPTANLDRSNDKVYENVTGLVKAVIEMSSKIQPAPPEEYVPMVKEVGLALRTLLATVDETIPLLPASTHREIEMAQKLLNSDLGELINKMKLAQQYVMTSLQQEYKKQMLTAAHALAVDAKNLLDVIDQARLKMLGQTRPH
Sequence of PYK2 (Q14289 whole entry): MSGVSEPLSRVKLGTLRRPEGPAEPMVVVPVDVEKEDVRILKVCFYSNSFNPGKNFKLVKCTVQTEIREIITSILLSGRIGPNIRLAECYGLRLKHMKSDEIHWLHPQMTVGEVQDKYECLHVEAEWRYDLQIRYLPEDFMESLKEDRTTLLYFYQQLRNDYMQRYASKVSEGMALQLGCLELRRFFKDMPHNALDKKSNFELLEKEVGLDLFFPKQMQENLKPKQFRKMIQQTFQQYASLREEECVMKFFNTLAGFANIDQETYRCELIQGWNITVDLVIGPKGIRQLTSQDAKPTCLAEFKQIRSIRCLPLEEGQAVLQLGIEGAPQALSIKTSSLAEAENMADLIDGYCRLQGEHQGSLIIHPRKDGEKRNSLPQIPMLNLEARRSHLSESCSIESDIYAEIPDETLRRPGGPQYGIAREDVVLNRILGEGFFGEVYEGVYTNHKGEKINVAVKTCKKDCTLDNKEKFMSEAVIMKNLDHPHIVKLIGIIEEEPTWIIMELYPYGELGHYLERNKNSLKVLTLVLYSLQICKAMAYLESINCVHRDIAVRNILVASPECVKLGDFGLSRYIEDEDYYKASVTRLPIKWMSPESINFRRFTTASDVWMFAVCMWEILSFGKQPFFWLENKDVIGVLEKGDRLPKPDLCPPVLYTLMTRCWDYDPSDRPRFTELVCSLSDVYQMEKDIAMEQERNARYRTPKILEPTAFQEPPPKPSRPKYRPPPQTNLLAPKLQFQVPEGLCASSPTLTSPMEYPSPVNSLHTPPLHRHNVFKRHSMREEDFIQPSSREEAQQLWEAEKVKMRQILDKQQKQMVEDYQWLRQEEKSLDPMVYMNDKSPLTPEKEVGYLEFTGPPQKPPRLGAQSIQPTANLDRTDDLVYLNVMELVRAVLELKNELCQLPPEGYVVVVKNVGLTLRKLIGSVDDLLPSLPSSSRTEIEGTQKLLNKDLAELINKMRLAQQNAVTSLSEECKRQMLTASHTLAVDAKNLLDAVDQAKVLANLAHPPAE

In general, IC50 refers to the midpoint of a concentration-inhibition curve. The low end stands for greater potency, the high end for weaker potency. For `CC(C)NS(=O)(=O)c1ccccc1Nc1nc(Nc2ccc(C(C)O)cc2)nc2c1CCN2` (stereo not drawn) [Example 69, 2-(2-(4-(1-hydroxyethyl)phenylamino)-6,7-dihydro-5H-pyrrolo[2,3-d]pyrimidin-4-ylamino)-N-isopropylbenzenesulfonamide], the IC50 in test [1] and in test [2] was below 0.02 µM in each case.

Consider `COc1cc(N2CCOCC2)ccc1Nc1nc2c(c(Nc3ccccc3N(C)S(C)(=O)=O)n1)CCN2` [Example 10, N-(2-(2-(2-methoxy-4-morpholinophenylamino)-6,7-dihydro-5H-pyrrolo[2,3-d]pyrimidin-4-ylamino)phenyl)-N-methylmethanesulfonamide], for which the IC50 is below 0.05 µM in test [1] and below 0.1 µM in test [2].

As for `CNC(=O)c1ccccc1Nc1nc(Nc2ccc(N3CCOCC3)cc2OC)nc2c1C1(CC1)CN2` [Example 152, 2-(2′-(2-methoxy-4-morpholinophenylamino)-6′,7′-dihydrospiro[cyclopropane-1,5′-pyrrolo[2,3-d]pyrimidine]-4′-ylamino)-N-methylbenzamide], the concentration for half-maximal inhibition (IC50) in test [1] is below 0.02 µM; in test [2] it was below 0.05 µM.

`CCCNS(=O)(=O)c1ccccc1Nc1nc(Nc2ccc(N3CCOCC3)cc2OC)nc2c1CCN2` [Example 5, 2-(2-(2-methoxy-4-morpholinophenylamino)-6,7-dihydro-5H-pyrrolo[2,3-d]pyrimidin-4-ylamino)-N-propylbenzenesulfonamide]: the IC50 in test [1] and in test [2] was below 0.02 µM in each case.

Consider `COc1cc(N2CCC(N3CCCCC3)CC2)ccc1Nc1nc2c(c(Nc3ccccc3S(=O)(=O)NC(C)C)n1)CCN2` [Example 92, 2-(2-(4-(1,4′-bipiperidin-1′-yl)-2-methoxyphenylamino)-6,7-dihydro-5H-pyrrolo[2,3-d]pyrimidin-4-ylamino)-N-isopropylbenzenesulfonamide], for which the IC50 in test [1] and in test [2] was below 0.02 µM throughout.

With `CNC(=O)c1ccccc1Nc1nc(Nc2ccc(N3CCOCC3)cc2OC)nc2c1[C@H](C)CN2` [Example 35, (S)-2-(2-(2-methoxy-4-morpholinophenylamino)-5-methyl-6,7-dihydro-5H-pyrrolo[2,3-d]pyrimidin-4-ylamino)-N-methylbenzamide], the IC50 in test [1] and in test [2] was below 0.02 µM each time.

Turning to `COc1cc(N2CCOCC2)ccc1Nc1nc2c(c(Nc3ccccc3C(=O)N3CCCC3)n1)C(C)CN2` (racemic) [Example 24, (±)-(2-(2-(2-methoxy-4-morpholinophenylamino)-5-methyl-6,7-dihydro-5H-pyrrolo[2,3-d]pyrimidin-4-ylamino)phenyl)(pyrrolidin-1-yl)methanone], the figures for the IC50 in test [1] and in test [2] were below 0.5 µM and below 0.2 µM, respectively.

For `COc1cc(N2CCOCC2)ccc1Nc1nc2c(c(Nc3ccc(F)c(F)c3)n1)C1(CC1)CN2` [Example 153, N^4′-(3,4-difluorophenyl)-N^2′-(2-methoxy-4-morpholinophenyl)-6′,7′-dihydrospiro[cyclopropane-1,5′-pyrrolo[2,3-d]pyrimidine]-2′,4′-diamine], the IC50 in test [1] was below 0.5 µM; in test [2], below 0.2 µM.

With `COc1cc(N2CCOCC2)ccc1Nc1nc2c(c(Nc3ccccc3S(=O)(=O)NC3CCCCC3)n1)C(C)(C)CN2` [Example 109, N-cyclohexyl-2-(2-(2-methoxy-4-morpholinophenylamino)-5,5-dimethyl-6,7-dihydro-5H-pyrrolo[2,3-d]pyrimidin-4-ylamino)benzenesulfonamide], the IC50 in test [1] and in test [2] was below 0.2 µM each time.

As for `COc1cc(N2CCOCC2)ccc1Nc1nc2c(c(Nc3ccccc3S(=O)(=O)NC(C)C)n1)C1(CC1)CN2` [Example 138, N-isopropyl-2-(2′-(2-methoxy-4-morpholinophenylamino)-6′,7′-dihydrospiro[cyclopropane-1,5′-pyrrolo[2,3-d]pyrimidine]-4′-ylamino)benzenesulfonamide], the IC50 in test [1] and in test [2] was below 0.02 µM each time.

In the case of `COc1cc(-n2ncnn2)ccc1Nc1nc2c(c(Nc3ccccc3S(=O)(=O)NC(C)C)n1)CCN2` [Example 88, N-isopropyl-2-(2-(2-methoxy-4-(2H-tetrazol-2-yl)phenylamino)-6,7-dihydro-5H-pyrrolo[2,3-d]pyrimidin-4-ylamino)benzenesulfonamide], the IC50 in test [1] is below 0.2 µM; in test [2] it was below 0.05 µM.

On to `CNC(=O)c1ccccc1Nc1nc(Nc2ccc(N3CCOCC3)c3c2OCCO3)nc2c1C(C)(C)CN2` [Example 129, 2-(5,5-dimethyl-2-(8-morpholino-2,3-dihydrobenzo[b][1,4]dioxin-5-ylamino)-6,7-dihydro-5H-pyrrolo[2,3-d]pyrimidin-4-ylamino)-N-methylbenzamide], for which the values for the IC50 in test [1] and in test [2] were below 0.1 µM and below 0.05 µM, respectively.

In the case of `CNC(=O)c1ccccc1Nc1nc(Nc2ccccc2OC)nc2c1CCN2` [Example 159, 2-(2-(2-methoxyphenylamino)-6,7-dihydro-5H-pyrrolo[2,3-d]pyrimidin-4-ylamino)-N-methylbenzamide], the IC50 in test [1] and in test [2] was below 0.2 µM throughout.

With `C=CCNS(=O)(=O)c1ccccc1Nc1nc(Nc2ccc(N3CCOCC3)cc2OC)nc2c1C1(CC1)CN2` [Example 144, N-allyl-2-(2′-(2-methoxy-4-morpholinophenylamino)-6′,7′-dihydrospiro[cyclopropane-1,5′-Pyrrolo[2,3-d]pyrimidine]-4′-ylamino)benzenesulfonamide], the IC50 in test [1] and in test [2] was below 0.02 µM each time.

For `COc1cc(N2CCOCC2)ccc1Nc1nc2c(c(NC3CCCCC3N(C)S(C)(=O)=O)n1)C(C)(C)CN2` (stereo not drawn) [Example 127, N-(2-(2-(2-methoxy-4-morpholinophenylamino)-5,5-dimethyl-6,7-dihydro-5H-pyrrolo[2,3-d]pyrimidin-4-ylamino)cyclohexyl)-N-methylmethanesulfonamide], the IC50 in test [1] and in test [2] was below 0.1 µM throughout.

Regarding `COc1cc(N2CCC(O)C2)ccc1Nc1nc2c(c(Nc3ccccc3S(=O)(=O)NC(C)C)n1)CCN2` (stereo not drawn) [Example 80, 2-(2-(4-(3-hydroxypyrrolidin-1-yl)-2-methoxyphenylamino)-6,7-dihydro-5H-pyrrolo[2,3-d]pyrimidin-4-ylamino)-N-isopropylbenzenesulfonamide], the values for the 50% inhibitory concentration (IC50) in test [1] and in test [2] were below 0.1 µM and below 0.02 µM, respectively.

`CC(C)NS(=O)(=O)c1ccccc1Nc1nc(Nc2ccc(N3CCOCC3)nc2)nc2c1CCN2` [Example 57, N-isopropyl-2-(2-(6-morpholinopyridin-3-ylamino)-6,7-dihydro-5H-pyrrolo[2,3-d]pyrimidin-4-ylamino)benzenesulfonamide]: the IC50 in test [1] and in test [2] was below 0.02 µM each time.

For the molecule `COc1cc(N2CCOCC2)ccc1Nc1nc2c(c(Nc3ccccc3S(=O)(=O)NC3CCCC3)n1)C1(CC1)CN2` [Example 145, N-cyclopentyl-2-(2′-(2-methoxy-4-morpholinophenylamino)-6′,7′-dihydrospiro[cyclopropane-1,5′-pyrrolo[2,3-d]pyrimidine]-4′-ylamino)benzenesulfonamide], the IC50 in test [1] and in test [2] was below 0.1 µM throughout.

For `CC(=O)Nc1ccc(Nc2nc3c(c(Nc4ccccc4S(=O)(=O)NC(C)C)n2)CCN3)cc1` [Example 63, N-(4-(4-(2-(N-isopropylsulfamoyl)phenylamino)-6,7-dihydro-5H-pyrrolo[2,3-d]pyrimidin-2-ylamino)phenyl)acetamide], the IC50 in test [1] and in test [2] was below 0.02 µM throughout.

In the case of `COc1cc(N2CCOCC2)ccc1Nc1nc2c(c(Nc3ccccc3S(N)(=O)=O)n1)CCN2` [Example 41, 2-(2-(2-methoxy-4-morpholinophenylamino)-6,7-dihydro-5H-pyrrolo[2,3-d]pyrimidin-4-ylamino)benzenesulfonamide], the IC50 in test [1] is below 0.2 µM; in test [2], below 0.05 µM.

For the molecule `CCNS(=O)(=O)c1ccccc1Nc1nc(Nc2ccc(N3CCOCC3)cc2OC)nc2c1CCN2` [Example 43, N-ethyl-2-(2-(2-methoxy-4-morpholinophenylamino)-6,7-dihydro-5H-pyrrolo[2,3-d]pyrimidin-4-ylamino)benzenesulfonamide], the figures for the IC50 in test [1] and in test [2] were below 0.02 µM and below 0.1 µM, respectively.

For the molecule `COc1cc(N2CCCC(O)C2)ccc1Nc1nc2c(c(Nc3ccccc3S(=O)(=O)NC(C)C)n1)CCN2` (stereo not drawn) [Example 81, 2-(2-(4-(3-hydroxypiperidin-1-yl)-2-methoxyphenylamino)-6,7-dihydro-5H-pyrrolo[2,3-d]pyrimidin-4-ylamino)-N-isopropylbenzenesulfonamide], the IC50 in test [1] was below 0.05 µM; in test [2] it was below 0.02 µM.

Regarding `COc1cc(N2CCC(O)CC2)ccc1Nc1nc2c(c(Nc3ccccc3S(=O)(=O)NC(C)C)n1)CCN2` [Example 86, 2-(2-(4-(4-hydroxypiperidin-1-yl)-2-methoxyphenylamino)-6,7-dihydro-5H-pyrrolo[2,3-d]pyrimidin-4-ylamino)-N-isopropylbenzenesulfonamide], the 50% inhibitory concentration (IC50) in test [1] and in test [2] was below 0.02 µM throughout.

Take `COc1cc(N2CCOCC2)ccc1Nc1nc2c(c(Nc3ccccc3S(=O)(=O)NCC(C)C)n1)CCN2` [Example 45, N-isobutyl-2-(2-(2-methoxy-4-morpholinophenylamino)-6,7-dihydro-5H-pyrrolo[2,3-d]pyrimidin-4-ylamino)benzenesulfonamide]: the IC50 in test [1] and in test [2] was below 0.1 µM each time.
